# From patent US12208092B2, “Compositions and methods for administering paltusotine to patients with hepatic impairment” (CRINETICS PHARMACEUTICALS, INC., priority 2023, dated 2025)
# Assay: Phase 1 hepatic impairment study, safety (TEAEs) after single oral 20 mg tablet
# [1] = normal hepatic function (N = 14)
# [2] = severe hepatic impairment (N = 6)
# Procedure: The secondary objective of the study was to assess the safety and tolerability of a single dose of paltusotine in subjects with varying degrees of hepatic impairment.
# Safety and tolerability were assessed by the following endpoints: reported adverse events (AEs), clinical laboratory test results (hematology, coagulation, serum chemistry, and urinalysis), vital sign measurements, and 12-lead electrocardiogram results
# All 36 subjects who were enrolled in the study received all planned single doses of paltusotine 20 mg (1×20 mg tablet) and were included in the safety and PK analysis populations.
smiles,measurement,setting,value
"N#Cc1cccc(-c2ccc3ncc(-c4cc(F)cc(F)c4)c(N4CCC(N)CC4)c3c2)c1O [paltusotine, 3-[4-(4-amino-1-piperidyl)-3-(3,5-difluorophenyl)-6-quinolyl]-2-hydroxybenzonitrile]","TEAE SOC Gastrointestinal disorders, number of occurrences",[1],5
same,"TEAE SOC Gastrointestinal disorders, subjects n (%)",[1],4 (28.6%)
same,"TEAE SOC General disorders and administration site conditions, subjects n (%)",[1],0
same,"TEAE SOC Infections and infestations, subjects n (%)",[1],0
same,"TEAE SOC Nervous system disorders, number of occurrences",[1],1
same,"TEAE SOC Nervous system disorders, subjects n (%)",[1],1 (7.1%)
same,"TEAE SOC Renal and urinary disorders, subjects n (%)",[1],0
same,"TEAEs Not Related to study drug (strongest relationship), subjects n (%)",[1],1 (7.1%)
same,"TEAEs Not Related to study drug, number of occurrences",[1],1
same,"TEAEs Related to study drug (strongest relationship), subjects n (%)",[1],3 (21.4%)
same,"TEAEs Related to study drug, number of occurrences",[1],5
same,"TEAEs by maximum severity: Mild, number of occurrences",[1],5
same,"TEAEs by maximum severity: Mild, subjects n (%)",[1],3 (21.4%)
same,"TEAEs by maximum severity: Moderate, number of occurrences",[1],1
same,"TEAEs by maximum severity: Moderate, subjects n (%)",[1],1 (7.1%)
same,"TEAEs by maximum severity: Severe, subjects n (%)",[1],0
same,Total number of SAEs reported,[1],0
same,Total number of TEAEs reported,[1],6
same,"Any SAEs, number of occurrences",overall (N = 36),1
same,"Any TEAE, number of occurrences",overall (N = 36),17
same,"Related TEAE Abdominal discomfort, number of occurrences",overall (N = 36),1
same,"Related TEAE Abdominal discomfort, subjects n (%)",overall (N = 36),1 (2.8%)
same,"Related TEAE Diarrhea, number of occurrences",overall (N = 36),5
same,"Related TEAE Diarrhea, subjects n (%)",overall (N = 36),5 (13.9%)
same,"Related TEAE Epigastric discomfort, number of occurrences",overall (N = 36),1
same,"Related TEAE Epigastric discomfort, subjects n (%)",overall (N = 36),1 (2.8%)
same,"Related TEAE Fatigue, number of occurrences",overall (N = 36),1
same,"Related TEAE Fatigue, subjects n (%)",overall (N = 36),1 (2.8%)
same,"Related TEAE Haematuria, number of occurrences",overall (N = 36),1
same,"Related TEAE Haematuria, subjects n (%)",overall (N = 36),1 (2.8%)
same,"Related TEAE Headache, number of occurrences",overall (N = 36),1
same,"Related TEAE Headache, subjects n (%)",overall (N = 36),1 (2.8%)
same,"Related TEAE Neutropenia, number of occurrences",overall (N = 36),1
same,"Related TEAE Neutropenia, subjects n (%)",overall (N = 36),1 (2.8%)
same,"Related TEAE Pain, number of occurrences",overall (N = 36),1
same,"Related TEAE Pain, subjects n (%)",overall (N = 36),1 (2.8%)
same,"Related TEAE Paraesthesia, number of occurrences",overall (N = 36),1
same,"Related TEAE Paraesthesia, subjects n (%)",overall (N = 36),1 (2.8%)
same,"SAEs Not related to study drug (strongest relationship), subjects n (%)",overall (N = 36),1 (2.8%)
same,"SAEs Not related to study drug, number of occurrences",overall (N = 36),1
same,"SAEs Related to study drug (strongest relationship), subjects",overall (N = 36),0
same,"Subjects reporting any SAEs, subjects n (%)",overall (N = 36),1 (2.8%)
same,"TEAE Abdominal discomfort, number of occurrences",overall (N = 36),1
same,"TEAE Abdominal discomfort, subjects n (%)",overall (N = 36),1 (2.8%)
same,"TEAE COVID-19, number of occurrences",overall (N = 36),1
same,"TEAE COVID-19, subjects n (%)",overall (N = 36),1 (2.8%)
same,"TEAE Death, number of occurrences",overall (N = 36),1
same,"TEAE Death, subjects n (%)",overall (N = 36),1 (2.8%)
same,"TEAE Diarrhea, number of occurrences",overall (N = 36),6
same,"TEAE Diarrhea, subjects n (%)",overall (N = 36),6 (16.7%)
same,"TEAE Epigastric discomfort, number of occurrences",overall (N = 36),1
same,"TEAE Epigastric discomfort, subjects n (%)",overall (N = 36),1 (2.8%)
same,"TEAE Fatigue, number of occurrences",overall (N = 36),1
same,"TEAE Fatigue, subjects n (%)",overall (N = 36),1 (2.8%)
same,"TEAE Haematuria, number of occurrences",overall (N = 36),1
same,"TEAE Haematuria, subjects n (%)",overall (N = 36),1 (2.8%)
same,"TEAE Headache, number of occurrences",overall (N = 36),2
same,"TEAE Headache, subjects n (%)",overall (N = 36),2 (5.6%)
same,"TEAE Neutropenia, number of occurrences",overall (N = 36),1
same,"TEAE Neutropenia, subjects n (%)",overall (N = 36),1 (2.8%)
same,"TEAE Pain, number of occurrences",overall (N = 36),1
same,"TEAE Pain, subjects n (%)",overall (N = 36),1 (2.8%)
same,"TEAE Paraesthesia, number of occurrences",overall (N = 36),1
same,"TEAE Paraesthesia, subjects n (%)",overall (N = 36),1 (2.8%)
same,"TEAE SOC Blood and lymphatic system disorders, number of occurrences",overall (N = 36),1
same,"TEAE SOC Blood and lymphatic system disorders, subjects n (%)",overall (N = 36),1 (2.8%)
same,"TEAE SOC Gastrointestinal disorders, number of occurrences",overall (N = 36),8
same,"TEAE SOC Gastrointestinal disorders, subjects n (%)",overall (N = 36),7 (19.4%)
same,"TEAE SOC General disorders and administration site conditions, number of occurrences",overall (N = 36),3
same,"TEAE SOC General disorders and administration site conditions, subjects n (%)",overall (N = 36),2 (5.6%)
same,"TEAE SOC Infections and infestations, number of occurrences",overall (N = 36),1
same,"TEAE SOC Infections and infestations, subjects n (%)",overall (N = 36),1 (2.8%)
same,"TEAE SOC Nervous system disorders, number of occurrences",overall (N = 36),3
same,"TEAE SOC Nervous system disorders, subjects n (%)",overall (N = 36),3 (8.3%)
same,"TEAE SOC Renal and urinary disorders, number of occurrences",overall (N = 36),1
same,"TEAE SOC Renal and urinary disorders, subjects n (%)",overall (N = 36),1 (2.8%)
same,"TEAEs Not Related to study drug (strongest relationship), subjects n (%)",overall (N = 36),1 (2.8%)
same,"TEAEs Not Related to study drug, number of occurrences",overall (N = 36),4
same,"TEAEs Related to study drug, number of occurrences",overall (N = 36),13
same,"TEAEs by maximum severity: Mild, number of occurrences",overall (N = 36),12
same,"TEAEs by maximum severity: Mild, subjects n (%)",overall (N = 36),6 (16.7%)
same,"TEAEs by maximum severity: Moderate, number of occurrences",overall (N = 36),4
same,"TEAEs by maximum severity: Moderate, subjects n (%)",overall (N = 36),3 (8.3%)
same,"TEAEs by maximum severity: Severe, number of occurrences",overall (N = 36),1
same,"TEAEs by maximum severity: Severe, subjects n (%)",overall (N = 36),1 (2.8%)
same,Total number of SAEs reported,overall (N = 36),1
same,Total number of TEAEs reported,overall (N = 36),17
same,"Any TEAE, number of occurrences",[2],4
same,"Related TEAE Abdominal discomfort, subjects n (%)",[2],0
same,"Related TEAE Diarrhea, number of occurrences",[2],1
same,"Related TEAE Diarrhea, subjects n (%)",[2],1 (16.7%)
same,"Related TEAE Epigastric discomfort, subjects n (%)",[2],0
same,"Related TEAE Fatigue, subjects n (%)",[2],0
same,"Related TEAE Haematuria, subjects n (%)",[2],0
same,"Related TEAE Headache, subjects n (%)",[2],0
same,"Related TEAE Neutropenia, number of occurrences",[2],1
same,"Related TEAE Neutropenia, subjects n (%)",[2],1 (16.7%)
same,"Related TEAE Pain, subjects n (%)",[2],0
same,"Related TEAE Paraesthesia, subjects n (%)",[2],0
same,"SAEs Not related to study drug (strongest relationship), subjects n (%)",[2],0
same,"SAEs Related to study drug (strongest relationship), subjects",[2],0
same,"Subjects reporting any SAEs, subjects n (%)",[2],0
same,"Subjects reporting any TEAE, subjects n (%)",[2],2 (33.3%)
same,"TEAE Abdominal discomfort, subjects n (%)",[2],0
same,"TEAE COVID-19, number of occurrences",[2],1
same,"TEAE COVID-19, subjects n (%)",[2],1 (16.7%)
same,"TEAE Death, subjects n (%)",[2],0
same,"TEAE Diarrhea, number of occurrences",[2],1
same,"TEAE Diarrhea, subjects n (%)",[2],1 (16.7%)
same,"TEAE Epigastric discomfort, subjects n (%)",[2],0
same,"TEAE Fatigue, subjects n (%)",[2],0
same,"TEAE Haematuria, subjects n (%)",[2],0
same,"TEAE Headache, number of occurrences",[2],1
same,"TEAE Headache, subjects n (%)",[2],1 (16.7%)
same,"TEAE Neutropenia, number of occurrences",[2],1
same,"TEAE Neutropenia, subjects n (%)",[2],1 (16.7%)
same,"TEAE Pain, subjects n (%)",[2],0
same,"TEAE Paraesthesia, subjects n (%)",[2],0
same,"TEAE SOC Blood and lymphatic system disorders, number of occurrences",[2],1
same,"TEAE SOC Blood and lymphatic system disorders, subjects n (%)",[2],1 (16.7%)
same,"TEAE SOC Gastrointestinal disorders, number of occurrences",[2],1
same,"TEAE SOC Gastrointestinal disorders, subjects n (%)",[2],1 (16.7%)
same,"TEAE SOC General disorders and administration site conditions, subjects n (%)",[2],0
same,"TEAE SOC Infections and infestations, number of occurrences",[2],1
same,"TEAE SOC Infections and infestations, subjects n (%)",[2],1 (16.7%)
same,"TEAE SOC Nervous system disorders, number of occurrences",[2],1
same,"TEAE SOC Nervous system disorders, subjects n (%)",[2],1 (16.7%)
same,"TEAE SOC Renal and urinary disorders, subjects n (%)",[2],0
same,"TEAEs Not Related to study drug (strongest relationship), subjects n (%)",[2],0
same,"TEAEs Related to study drug (strongest relationship), subjects n (%)",[2],2 (33.3%)
same,"TEAEs Related to study drug, number of occurrences",[2],2
same,"TEAEs by maximum severity: Mild, number of occurrences",[2],2
same,"TEAEs by maximum severity: Mild, subjects n (%)",[2],1 (16.7%)
same,"TEAEs by maximum severity: Moderate, number of occurrences",[2],2
same,"TEAEs by maximum severity: Moderate, subjects n (%)",[2],1 (16.7%)
same,"TEAEs by maximum severity: Severe, subjects n (%)",[2],0
same,Total number of SAEs reported,[2],0
same,Total number of TEAEs reported,[2],4
